Results published in patent publication US20230399622A1, “THERAPY FOR DEGENERATIVE DISEASE AND TISSUE DAMAGE” (FUNDACIÓ CENTRE DE REGULACIÓ GENÒMICA, priority 2020, published 2023).

Key:
MSCs [1] = assay: Transwell chemotactic assay of MSCs with chemokine receptor antagonists, media conditioned by rd10 retina; format: cell-based, mouse; details: towards media conditioned by rd10 (P18) retina; vs vehicle DMSO; working concentrations of Table 2
Method: (§1) Chemotactic assays were performed using transwell inserts (pore size, 8 μm, BD Biosciences—353182) and 12-well culture plates. To test migration towards defined chemokine gradients, lower chambers were loaded with 1.2 ml of SF DMEM/F-12-GlutaMAX medium with either mCcl5, mCxcl1, mCxcl10, mCxcl16 or a combination of Ccl5 and mCxcl16 (all 50 ng/ml, Peprotech). For tests of NMDA-damage, mice were sacrificed 24 hpi; rd10 mice were sacrificed at P18. Human retina were dissected and cultured for an initial 12 hours in Neurobasal A medium, as previously described. Afterwards, both mouse and human retina were cultured for 24 hours in SF DMEM/F-12-GlutaMAX and SF Neurobasal A (with or without 1 mM NMDA) respectively. 1.2 ml of the resulting conditioned medium were loaded in the lower chambers of the transwell. The upper chamber was loaded with 2×10^5 MSCs in SF medium. The medium used to resuspend MSCs was matched to the medium in the bottom chamber: either DMEM/F-12-GlutaMAX (to test migration towards medium conditioned by mouse retina) or Neurobasal A (to test migration towards medium conditioned by human retina). […]
(§2) Transwell plates were incubated for 1.5 hours at 37° C. […] For each insert, seven fields were imaged and analysed. Cells were automatically counted using a custom-made macro for the ImageJ software (US National Institutes of Health, Bethesda, Md., USA; http://rsb.info.nih.gov/ij/).

MSCs [2] = assay: Transwell chemotactic assay of MSCs with chemokine receptor antagonists, media conditioned by NMDA-damaged retina; format: cell-based, mouse; details: towards media conditioned by NMDA-damaged (24 hpi) retina; vs vehicle DMSO; working concentrations of Table 2
Method: as §1, §2

| SMILES | migration of MSCs in the presence of receptor inhibitors (MSCs [1]) | migration of MSCs in the presence of receptor inhibitors (MSCs [2]) |
| --- | --- | --- |
| NS(=O)(=O)c1c(Cl)ccc(NC(=O)Nc2cccc(Cl)c2Cl)c1O [Cxcr2 inhibitor, SB 332235] | not affected | not affected |
| COc1cc(C(=O)NC2C[C@H]3CCC[C@@H](C2)N3CC(=O)Nc2ccccc2Cl)cc(OC)c1OC (stereo partly shown) [Cxcr6 inhibitor, ML 339] | significantly reduced | significantly reduced |
